In brackets after ≈: the same amount, converted by molar mass. Several values for one entry are separate records, joined by “and”; a condition that tells them apart may be missing. Equal values may be shown once. Read-outs that look alike come from different tables or passages of the source.
How the values were obtained:
[1] = tested on: wild-type E. coli BW25113; test: Survival / persistence level (CFU) of stationary-phase culture diluted 1:20 into fresh LB with antibiotic; type: cell-based, Escherichia coli; settings: for persistence survival level / persistence rate: monotherapy 10 hours, kanamycin 3 MIC, ciprofloxacin 20 MIC, ampicillin 20 MIC, polymyxin B 3 MIC
Experimental: (§1) The proportion of persisting cells in bacterial cultures typically reaches higher levels during the nutrient-depleted stationary phase. To investigate the persistence capacity of the model bacterium Escherichia coli(E. coli) against most bactericidal antibiotics, the standard BW25113 strain with E. coli K12 background was cultured at 37° C. in commercially available LB liquid medium until reaching the stationary phase. The culture was then inoculated at a 1:20 dilution into fresh LB liquid medium containing antibiotics at multiple dilutions of the minimum inhibitory concentration (MIC). Samples were collected after different treatment durations, and residual antibiotics were removed through two centrifugations. After tenfold serial dilution in physiological saline, the cultures were plated on LB agar plates without antibiotics. Survival colony-forming units (CFUs) were counted after two days of incubation, with initial CFU values before antibiotic addition serving as controls to calculate bacterial survival rates and persistence levels using conventional experimental methods. Testing for other bacteria followed the same protocol.
The culture was then incubated at 37° C. with shaking at 160 rpm for 10 hours. […] Each measurement was obtained from at least three independent experiments, with error bars representing the mean±standard deviation.

[2] = tested on: E. coli hipA7 strain; settings: for survival rate / viability: monotherapy 10 hours, kanamycin 3 MIC, ciprofloxacin 20 MIC, ampicillin 20 MIC, polymyxin B 3 MIC, mitomycin C 3 MIC
Experimental: as §1
(§2) Each measurement was obtained from at least three independent experiments, with error bars representing the mean±standard deviation.
as §2, §2

[3] = tested on: wild-type E. coli BW25113; test: Minimum inhibitory concentration (MIC); type: cell-based, Escherichia coli
[4] = cited from earlier work
[5] = tested on: E. coli hipA7 cells; test: Cell membrane damage, propidium iodide (PI) staining; type: cell-based, Escherichia coli; settings: single drug
Experimental: Samples were incubated at 37° C. with 160 rpm shaking for 8 hours.
Parallel samples were treated with corresponding concentrations of individual drugs. Samples were collected at 0, 2, and 4 hours, with the addition of 5 μM PI dye 10 minutes prior to each collection time point. After washing with saline to remove antibiotics and extracellular dyes, cellular fluorescence intensity was analyzed by flow cytometry, with 100,000 cells analyzed per sample. The results from three independent experiments were basically the same. Representative data from one of the experiments were selected for plotting.

[6] = tested on: E. coli hipA7 cells; test: Membrane potential, DiSC3(5) dye, flow cytometry; type: cell-based, Escherichia coli; settings: 0.9 μg/mL polymyxin B, 20 μg/mL kanamycin, combined or alone; up to 8 hours
Experimental: As represented by the combination antibiotic containing 0.9 μg/mL polymyxin B and 20 μg/mL kanamycin, the cell membrane damage in hipA7 cultures during stress-induced antibiotic killing was assessed. […] Samples were incubated at 37° C. with 160 rpm shaking for 8 hours. During sampling, 2.5 μM DiSC3 (5) was added in the first 10 minutes of each time point, followed by washing to remove the drugs and unbound dye. Flow cytometry was used to measure fluorescence intensity, with 100,000 cells analyzed per sample. […] Representative data from one of the experiments were selected for plotting.

[7] = Escherichia coli, BW25113, read-out: MIC
[8] = clinical dosage guideline 2 mg/kg

Compound	persistence survival level / persistence rate [1]	survival rate / viability [2]	MIC [3, 7]	MIC [3]	further results
CC1(C)S[C@@H]2[C@H](NC(=O)[C@H](N)c3ccccc3)C(=O)N2[C@H]1C(=O)O [ampicillin]	0.001%	Approximately 10%	6 µg/mL (≈ 17.2 µM)		
O=C(O)c1cn(C2CC2)c2cc(N3CCNCC3)c(F)cc2c1=O [ciprofloxacin]	0.001%	Approximately 10%	0.03 µg/mL (≈ 0.0905 µM)		
NC[C@H]1O[C@H](O[C@H]2[C@H](O)[C@@H](O[C@H]3O[C@H](CO)[C@@H](O)[C@H](N)[C@H]3O)[C@H](N)C[C@@H]2N)[C@H](O)[C@@H](O)[C@@H]1O [kanamycin]	0.001%	10%	8 µg/mL (≈ 16.5 µM)		peak serum concentration ([4]; clinical): 20 µg/mL and 18 to 20 µg/mL; viability decreased ([1]; kanamycin 24 μg/mL (3 MIC), 10 hours): 100,000 fold; survival rate, times higher than that of wild-type E. coli ([2]; 3 MIC kanamycin, 10 hours): 10,000 times
CO[C@@]12[C@H](COC(N)=O)C3=C(C(=O)C(C)=C(N)C3=O)N1C[C@@H]1N[C@@H]12 [mitomycin C]				0.8 µg/mL (≈ 2.39 µM)	
polymyxin					average serum concentration [4, 8]: approximately 2.8 μg/mL; serum concentration range [4, 8]: 680 to 4880 ng/mL
polymyxin B	0.001%	Approximately 10%		0.3 µg/mL	PI fluorescence (membrane disruption) ([5]; after 2 hours): majority of cells showed no increase in PI fluorescence; PI fluorescence (membrane disruption) ([5]; after 4 hours): only a minimal number of cells exhibiting detectable signals; DiSC3(5) fluorescence signal (membrane potential) [6]: no significant enhancement of DiSC3(5) fluorescence signal

Reference: US20260137754A1, “APPLICATION OF A COMBINATION DRUG IN THE TREATMENT OF PATHOGENIC BACTERIAL PERSISTENT INFECTIONS” (priority 2023, published 2026)
